According to patent publication US20010027216A1, “Method for preventing hormone induced adverse effects” (priority 2000, published 2001):
Entries after “also recorded” stand apart in the source; their conditions may differ.

What was measured:
Assay type in all cases: cell-based, human
[1] = tested on: ECC-1 endometrial cancer cells; test: ECC-1 cell proliferation, [3H]thymidine incorporation into DNA; settings: for cell proliferation rate (cpm): concentration range 0.01 to 4 μM (FIG. 1 panel A); for effect on endometrial cancer cell growth over increasing concentrations: three days
Description: Cells were cultured in DMEM containing penicillin (100 U/ml), streptomycin (0.1 mg/ml)) nystatin (12.5 (g/ml), insulin (0.6 (g/ml), and 10% FCS. Cells were stripped of endogenous steroids according to the procedure of Vignon et al. (1987, Biochem. Biophys. Res. Comm., 146:1502-8) by successive passages in medium without phenol red containing 10% and then 3% of charcoal-stripped FCS. Cells were seeded into 96 multiwell plates (5,000 cells per well) in DMEM containing 3% of charcoal-stripped FCS. After one day the medium was changed to one containing the solubilized carotenoid or THF alone. The medium was changed daily to ensure a continuous supply of carotenoid. After incubation, the number of cells and the rate of cell proliferation were estimated by the incorporation of [^3H]thymidine incorporation into cellular DNA, as described in U.S. Pat. No. 5,827,900. Cell growth was also measured by direct cell counting with a Coulter counter after trypsinization and dilution in Isotone-II (Coulter Electronics, Luton, England). A good correlation was found between the two methods. ECC-1 cells were incubated with increasing concentrations of the isoflavones genistein and daidzein, the two primary isoflavones in soy products, and with soy extract. Cell proliferation after three days was measured by [^3H]thymidine incorporation into DNA (FIG. 1, panel A). […] ECC-1 cells were also incubated with a single high concentration (40 μM) of each of genistein, daidzein and soy extract. Cell proliferation was assayed daily over the course of three days.

[2] = tested on: MCF-7 mammary cancer cells; test: MCF-7 cell proliferation, [3H]thymidine incorporation; settings: for phytoestrogen-induced cell proliferation: genistein 4 μM
Description: (§1) Cells were cultured in DMEM containing penicillin (100 U/ml), streptomycin (0.1 mg/ml)) nystatin (12.5 (g/ml), insulin (0.6 (g/ml), and 10% FCS. Cells were stripped of endogenous steroids according to the procedure of Vignon et al. (1987, Biochem. Biophys. Res. Comm., 146:1502-8) by successive passages in medium without phenol red containing 10% and then 3% of charcoal-stripped FCS. Cells were seeded into 96 multiwell plates (5,000 cells per well) in DMEM containing 3% of charcoal-stripped FCS. After one day the medium was changed to one containing the solubilized carotenoid or THF alone. The medium was changed daily to ensure a continuous supply of carotenoid.
(§2) After incubation, the number of cells and the rate of cell proliferation were estimated by the incorporation of [^3H]thymidine incorporation into cellular DNA, as described in U.S. Pat. No. 5,827,900. Cell growth was also measured by direct cell counting with a Coulter counter after trypsinization and dilution in Isotone-II (Coulter Electronics, Luton, England). A good correlation was found between the two methods.
The comparative effects of estradiol and genistein supplementation on the proliferation of the hormone-dependent cell lines MCF-7 mammary cancer and ECC-1 endometrial cancer were examined (FIG. 2).
MCF-7 mammary cancer cells were stimulated by genistein (4 μM) and test cultures were additionally supplemented with lycopene or phytoene or a combination of both, at either physiological concentrations (FIG. 6, panel A) or at about one order of magnitude greater than the physiological concentrations (FIG. 6, panel B).

[3] = tested on: MDA-231 mammary cancer cells; test: MDA-231 cell proliferation, [3H]thymidine incorporation
Description: as §1, §2
Thus genistein not only stimulates hormone-dependent cancer cell proliferation, but IGF-I as well as other growth factors further augment this effect.

[4] = lycopene 3 to 5 μM, three days in culture
[5] = stimulated by estradiol at 10 nM (FIG. 4)
[6] = stimulated by genistein at 1 μM (FIG. 4)
[7] = high, non-physiological concentrations of the individual carotenoids (FIG. 6, panel B)
[8] = lycopene 3 to 5 μM, IGF-1 30 nM
[9] = 40 μM, after one day of incubation (FIG. 1, panel B)
[10] = 0.4 and 4 μM, after three days (FIG. 1, panel A)

**Q.** Which results are given for CC(C)=CCC/C(C)=C/C=C/C(C)=C/C=C/C(C)=C/C=C/C=C(C)/C=C/C=C(C)/C=C/C=C(\C)CCC=C(C)C [lycopene]?
**A.** estradiol-induced cell proliferation ([1]; estradiol 10 nM, various concentrations of lycopene, lowest 0.9 μM (FIG. 5)): all lycopene concentrations tested were effective in inhibiting; genistein-induced cell proliferation ([1]; genistein 1 μM, various concentrations of lycopene, lowest 0.9 μM (FIG. 5)): all lycopene concentrations tested were effective in inhibiting; basal growth [1, 4]: significantly inhibited; estrogen-induced (either genistein or estradiol) growth [1, 4]: substantially inhibited; also recorded: significantly inhibited; estradiol-induced cell proliferation [1, 5]: effectively inhibited; genistein-induced cell proliferation [1, 6]: effective inhibitors; also recorded: effectively inhibited; phytoestrogen-induced cell proliferation [2, 7]: effective in significantly inhibiting; phytoestrogen-induced cell proliferation ([2]; low (physiological) concentration: lycopene 0.4 μM, mixture of phytoene and phytofluene 6 μM (FIG. 6, panel A)): do not significantly affect; IGF stimulation of cell growth [2, 8]: inhibits IGF stimulation; basal growth [2, 4]: significantly inhibited; estrogen-induced (either genistein or estradiol) growth [2, 4]: substantially inhibited; also recorded: significantly inhibited; IGF stimulation of cell growth [3, 8]: inhibits IGF stimulation; cell proliferation compared with controls [3, 8]: reduced to levels less than that of controls

**Q.** For CC(C)=CCC/C(C)=C/CC/C(C)=C/CC/C(C)=C/C=C/C=C(\C)CC/C=C(\C)CC/C=C(\C)CCC=C(C)C [phytoene], which genistein-induced cell proliferation [1, 6] is on record?
**A.** effective inhibitors

**Q.** What about the phytoestrogen-induced cell proliferation [2, 7] of the same compound?
**A.** effective in significantly inhibiting

**Q.** Which results are given for CC1=C(/C=C/C(C)=C/C=C/C(C)=C/C=C/C=C(C)/C=C/C=C(C)/C=C/C2=C(C)CCCC2(C)C)C(C)(C)CCC1 [beta-carotene]?
**A.** estradiol-induced cell proliferation [1, 5]: effectively inhibited; genistein-induced cell proliferation [1, 6]: effective inhibitors; also recorded: effectively inhibited

**Q.** Which estradiol-induced cell proliferation [1, 5] does the source give for CC1=C(/C=C/C(C)=C/C=C/C(C)=C/C=C/C=C(C)/C=C/C=C(C)/C=C/C2=C(C)C(=O)[C@@H](O)CC2(C)C)C(C)(C)C[C@H](O)C1=O [astaxanthin] here?
**A.** effectively inhibited

**Q.** And the genistein-induced cell proliferation [1, 6]?
**A.** effective inhibitors; also recorded: effectively inhibited

**Q.** Which cell proliferation [1, 9] does the source give for O=c1c(-c2ccc(O)cc2)coc2cc(O)cc(O)c12 [genistein, reference compound] here?
**A.** significantly increases cell proliferation; also recorded: stimulated cell proliferation

**Q.** What about the cell proliferation ([1]; 40 μM, second day in culture (FIG. 1, panel B)) of the same compound?
**A.** inhibitory effects

**Q.** What about the cell proliferation [1, 10] of the same compound?
**A.** stimulated cell proliferation

**Q.** And the “cell proliferation rate (cpm)” value [1]?
**A.** significant increase in cell proliferation rate

**Q.** What about the cell proliferation ([1]; higher, non-physiological concentrations (10 μM), after three days in culture (FIG. 1, panel A)) of the same compound?
**A.** inhibited cell proliferation

**Q.** What about the “effect on endometrial cancer cell growth over increasing concentrations” value [1] of the same compound?
**A.** biphasic effects on proliferation, stimulating at low concentrations and inhibiting at high concentrations

**Q.** What about the “effect on proliferation over increasing concentrations” value ([2]; increasing concentrations (FIG. 2, panel A)) of the same compound?
**A.** biphasic effects on proliferation, stimulating at low concentrations and inhibiting at high concentrations

**Q.** What about the “stimulatory effect of genistein in the presence of IGF-I” value ([2]; with IGF-1 30 nM (FIG. 3, panel A)) of the same compound?
**A.** further augmented

**Q.** What about the “stimulation of cell growth by genistein” value ([3]; FIG. 3, panel B) of the same compound?
**A.** not by genistein

**Q.** What does the source list for “IGF-1: Human recombinant IGF-1 purchased from GroPep”?
**A.** cell growth ([2]; IGF-1 30 nM (FIG. 3, panel A)): significantly stimulates cell growth; cell growth ([3]; IGF-1 30 nM (FIG. 3, panel B)): significantly stimulates cell growth

**Q.** O=c1c(-c2ccc(O)cc2)coc2cc(O)ccc12 [daidzein, reference compound] was tested. Which cell proliferation [1, 9] did it give?
**A.** significantly increases cell proliferation; also recorded: stimulated cell proliferation

**Q.** What about the cell proliferation [1, 10] of the same compound?
**A.** stimulated cell proliferation

**Q.** What about the “cell proliferation rate (cpm)” value [1] of the same compound?
**A.** significant increase in cell proliferation rate

**Q.** And the “effect on endometrial cancer cell growth over increasing concentrations” value [1]?
**A.** only stimulatory
